The source of these data is patent publication US20100152156A1, “2-Azetidinone Derivatives For The Treatment Of Hyperlipidaemic Diseases” (ASTRAZENECA AB, priority 2005, published 2010).

Data set [1] deals with ^14C-cholesterol absorption. Briefly: In vivo testing of cholesterol absorption inhibitors (A). To be noted: procedure A, C57BL/6 female mice. The procedure:
In Vivo Testing of Cholesterol Absorption Inhibitors (A)
C57BL/6 female mice were maintained on regular chow diet and housed in individual cages to collect faeces. Mice were fasted for 3 hours and then gavaged with vehicle or compound. Half an hour later the mice were gavaged with radiolabelled cholesterol. Six hours after the ^14C-cholesterol gavage blood samples were taken via the tail and plasma prepared to determine how much cholesterol were absorbed. 24 hours after the gavage of ^14C-cholesterol the mice were bled and plasma were prepared for analysis. Faeces were collected for 24 hours to assess absorption efficiency.

Data set [2] can be described thus: Absorption in a Caco-2 cells model. In kind it is in vitro ADME. To be noted: human. The procedure:
Absorption of the compounds of formula (I) was tested in a Caco-2 cells model (Gastroenterology 1989, 96, 736): […]

What is called Papp is a coefficient for how fast a substance crosses the barrier. Read a high Papp as ready permeation. `CC(C)(C)[C@@H](NC(=O)CNC(=O)COc1ccc([C@@H]2[C@@H](SCC(O)c3ccc(F)cc3)C(=O)N2c2ccc(F)cc2)cc1)C(=O)NCC(=O)O` (single isomer, unassigned) [Example 6, N-{[4-((2R,3R)-1-(4-fluorophenyl)-3-{[(2R or S)-2-(4-fluorophenyl)-2-hydroxyethyl]thio}-4-oxoazetidin-2-yl)phenoxy]acetyl}glycyl-3-methyl-D-valylglycine]: the “inhibition of ^14C-cholesterol absorption” value in data set [1] (administration of 0.2 mmol/kg by gavage) turned out to be 49%. The Papp in data set [2] was 0.12 ×10⁻⁶ cm/s.

Regarding `CC(C)(C)[C@@H](NC(=O)CNC(=O)COc1ccc([C@@H]2[C@@H](SCC(O)c3ccc(F)cc3)C(=O)N2c2ccc(F)cc2)cc1)C(=O)N[C@H](CO)C(=O)O` (single isomer, unassigned) [Example 7, N-{[4-((2R,3R)-1-(4-fluorophenyl)-3-{[(2R or S)-2-(4-fluorophenyl)-2-hydroxyethyl]thio}-4-oxoazetidin-2-yl)phenoxy]acetyl}glycyl-3-methyl-D-valyl-D-serine], in data set [1] (administration of 0.2 μmol/kg by gavage), the “inhibition of ^14C-cholesterol absorption” value amounted to 46%.
